Measurements taken from the kinase profiling compilation of Christmann-Franck et al. (2016).
Blank lines part the entries; values can stand above or below the compound they belong to.

Tests used:
[1] = target: GAK (human) (UniProt O14976); assay: KINOMEscan competition binding; details: compound 10.0 µM
[2] = target: PLK1 (human) (UniProt P53350); assay: KINOMEscan competition binding; details: compound 10.0 µM
[3] = target: PLK4 (human) (UniProt O00444); assay: KINOMEscan competition binding; details: compound 10.0 µM
PLK4 (human), sequence (O00444 whole entry, looked up): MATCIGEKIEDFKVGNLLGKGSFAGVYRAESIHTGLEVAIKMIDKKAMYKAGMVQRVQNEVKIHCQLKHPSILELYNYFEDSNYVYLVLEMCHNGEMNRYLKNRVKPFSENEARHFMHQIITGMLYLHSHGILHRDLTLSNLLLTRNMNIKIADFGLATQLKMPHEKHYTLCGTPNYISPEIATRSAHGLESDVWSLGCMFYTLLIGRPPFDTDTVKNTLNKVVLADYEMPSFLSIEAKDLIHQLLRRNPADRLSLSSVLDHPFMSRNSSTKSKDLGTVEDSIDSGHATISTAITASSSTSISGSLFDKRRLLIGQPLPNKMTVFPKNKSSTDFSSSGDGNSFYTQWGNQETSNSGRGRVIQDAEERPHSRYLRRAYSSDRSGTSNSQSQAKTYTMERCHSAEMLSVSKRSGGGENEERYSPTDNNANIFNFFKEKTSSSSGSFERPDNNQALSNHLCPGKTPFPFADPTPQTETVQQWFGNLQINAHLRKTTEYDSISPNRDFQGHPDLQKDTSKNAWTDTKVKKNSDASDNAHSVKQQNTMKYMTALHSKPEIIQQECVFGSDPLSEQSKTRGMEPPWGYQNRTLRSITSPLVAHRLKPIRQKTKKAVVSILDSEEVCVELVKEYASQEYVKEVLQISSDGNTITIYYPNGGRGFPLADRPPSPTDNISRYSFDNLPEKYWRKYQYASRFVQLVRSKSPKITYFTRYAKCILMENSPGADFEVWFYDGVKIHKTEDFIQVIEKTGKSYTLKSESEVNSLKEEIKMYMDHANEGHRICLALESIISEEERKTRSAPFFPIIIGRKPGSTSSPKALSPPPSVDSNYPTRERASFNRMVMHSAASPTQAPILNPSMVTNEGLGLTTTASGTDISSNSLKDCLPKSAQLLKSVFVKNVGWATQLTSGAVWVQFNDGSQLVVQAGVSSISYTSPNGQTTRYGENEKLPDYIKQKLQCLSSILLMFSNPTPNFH

[4] = target: TTK (human) (UniProt P33981); assay: KINOMEscan competition binding; details: for kinase still bound, per cent of control: compound 10.0 µM
TTK (human), sequence (P33981 whole entry, looked up): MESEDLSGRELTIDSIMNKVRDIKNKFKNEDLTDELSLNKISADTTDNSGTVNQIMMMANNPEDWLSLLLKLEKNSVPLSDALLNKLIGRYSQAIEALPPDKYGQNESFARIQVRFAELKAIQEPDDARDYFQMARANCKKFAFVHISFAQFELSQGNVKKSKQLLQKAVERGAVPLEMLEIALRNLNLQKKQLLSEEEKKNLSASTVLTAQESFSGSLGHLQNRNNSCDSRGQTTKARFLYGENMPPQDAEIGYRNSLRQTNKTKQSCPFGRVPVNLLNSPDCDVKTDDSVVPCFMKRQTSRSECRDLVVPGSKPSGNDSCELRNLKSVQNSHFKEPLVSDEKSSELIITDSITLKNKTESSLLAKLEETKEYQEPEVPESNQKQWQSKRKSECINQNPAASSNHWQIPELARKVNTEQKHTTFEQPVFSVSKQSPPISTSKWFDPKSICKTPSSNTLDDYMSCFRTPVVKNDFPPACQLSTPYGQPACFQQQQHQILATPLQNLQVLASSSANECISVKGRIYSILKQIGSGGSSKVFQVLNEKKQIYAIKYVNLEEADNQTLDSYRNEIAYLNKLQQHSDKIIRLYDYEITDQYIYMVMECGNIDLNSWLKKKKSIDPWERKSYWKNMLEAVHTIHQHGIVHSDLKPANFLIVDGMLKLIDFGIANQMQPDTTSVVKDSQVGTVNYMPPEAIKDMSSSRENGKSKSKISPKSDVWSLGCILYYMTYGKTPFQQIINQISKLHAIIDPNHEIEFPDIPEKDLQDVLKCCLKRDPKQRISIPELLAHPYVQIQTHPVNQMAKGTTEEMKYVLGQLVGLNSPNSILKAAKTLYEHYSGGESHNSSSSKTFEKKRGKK

[5] = target: JAK2 JH1 catalytic (human) (UniProt O60674); assay: KINOMEscan competition binding; details: compound 10.0 µM
[6] = target: CSF1R (human) (UniProt P07333); assay: SelectScreen, TR FRET
[7] = target: TTK (human) (UniProt P33981); assay: SelectScreen, TR FRET
[8] = target: FRK (human) (UniProt P42685); assay: SelectScreen, TR FRET
[9] = target: PTK6 (human) (UniProt Q13882); assay: SelectScreen, TR FRET
[10] = target: DCLK2 (human) (UniProt Q8N568); assay: SelectScreen, TR FRET
[11] = target: MAPK15 (human) (UniProt Q8TD08); assay: KINOMEscan competition binding; details: compound 10.0 µM
[12] = target: PIM1 (human) (UniProt P11309); assay: KINOMEscan competition binding; details: compound 10.0 µM
PIM1 (human), sequence (P11309 whole entry, looked up): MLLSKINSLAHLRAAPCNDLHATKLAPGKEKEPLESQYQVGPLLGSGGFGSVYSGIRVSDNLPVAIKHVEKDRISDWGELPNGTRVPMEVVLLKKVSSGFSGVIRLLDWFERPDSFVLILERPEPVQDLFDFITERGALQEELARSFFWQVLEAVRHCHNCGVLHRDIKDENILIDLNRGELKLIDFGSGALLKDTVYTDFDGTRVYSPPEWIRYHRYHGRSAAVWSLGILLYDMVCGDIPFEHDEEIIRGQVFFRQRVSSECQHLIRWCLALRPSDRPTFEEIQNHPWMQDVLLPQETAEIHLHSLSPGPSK

[13] = target: CDK7 (human) (UniProt P50613); assay: KINOMEscan competition binding; details: compound 10.0 µM
[14] = target: ACVR2B (human) (UniProt Q13705); assay: KINOMEscan competition binding; details: compound 10.0 µM
[15] = target: CDK16 (human) (UniProt Q00536); assay: KINOMEscan competition binding; details: compound 10.0 µM
[16] = target: DAPK3 (human) (UniProt O43293); assay: KINOMEscan competition binding; details: compound 10.0 µM
DAPK3 (human), sequence (O43293 whole entry, looked up): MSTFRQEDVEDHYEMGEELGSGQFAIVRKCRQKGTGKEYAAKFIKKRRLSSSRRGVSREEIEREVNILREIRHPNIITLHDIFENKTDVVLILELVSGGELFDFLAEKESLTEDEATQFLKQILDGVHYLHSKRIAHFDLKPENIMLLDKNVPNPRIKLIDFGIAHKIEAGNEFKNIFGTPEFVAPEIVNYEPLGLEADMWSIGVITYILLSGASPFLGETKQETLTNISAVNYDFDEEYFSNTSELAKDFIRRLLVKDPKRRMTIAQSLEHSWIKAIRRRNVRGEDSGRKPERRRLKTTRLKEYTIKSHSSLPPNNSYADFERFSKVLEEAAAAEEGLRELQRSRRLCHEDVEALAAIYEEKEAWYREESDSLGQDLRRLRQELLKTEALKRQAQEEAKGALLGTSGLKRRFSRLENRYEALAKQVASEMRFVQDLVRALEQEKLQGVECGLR

[17] = target: CDK3 (human) (UniProt Q00526); assay: KINOMEscan competition binding; details: compound 10.0 µM
[18] = target: CDK5 (human) (UniProt Q00535); assay: KINOMEscan competition binding; details: compound 10.0 µM
[19] = target: GSK3A (human) (UniProt P49840); assay: KINOMEscan competition binding; details: compound 10.0 µM
[20] = target: BRAF (human) (UniProt P15056); assay: KINOMEscan competition binding; details: compound 10.0 µM
[21] = target: DAPK2 (human) (UniProt Q9UIK4); assay: KINOMEscan competition binding; details: compound 10.0 µM
DAPK2 (human), sequence (Q9UIK4 whole entry, looked up): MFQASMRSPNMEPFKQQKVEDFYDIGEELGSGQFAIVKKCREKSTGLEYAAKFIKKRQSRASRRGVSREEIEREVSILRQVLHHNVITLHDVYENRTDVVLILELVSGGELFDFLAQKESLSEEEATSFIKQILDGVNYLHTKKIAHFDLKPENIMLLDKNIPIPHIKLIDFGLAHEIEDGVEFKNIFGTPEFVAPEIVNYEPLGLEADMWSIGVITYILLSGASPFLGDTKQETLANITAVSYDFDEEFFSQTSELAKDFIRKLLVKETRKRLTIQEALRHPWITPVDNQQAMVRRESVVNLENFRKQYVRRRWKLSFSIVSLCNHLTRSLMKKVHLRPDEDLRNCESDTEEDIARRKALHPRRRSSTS

[22] = target: TAOK1 (human) (UniProt Q7L7X3); assay: KINOMEscan competition binding; details: compound 10.0 µM
[23] = target: DAPK1 (human) (UniProt P53355); assay: KINOMEscan competition binding; details: compound 10.0 µM
[24] = target: MAPK12 (human) (UniProt P53778); assay: KINOMEscan competition binding; details: compound 10.0 µM
[25] = target: HIPK1 (human) (UniProt Q86Z02); assay: KINOMEscan competition binding; details: compound 10.0 µM
HIPK1 (human), sequence (Q86Z02 whole entry, looked up): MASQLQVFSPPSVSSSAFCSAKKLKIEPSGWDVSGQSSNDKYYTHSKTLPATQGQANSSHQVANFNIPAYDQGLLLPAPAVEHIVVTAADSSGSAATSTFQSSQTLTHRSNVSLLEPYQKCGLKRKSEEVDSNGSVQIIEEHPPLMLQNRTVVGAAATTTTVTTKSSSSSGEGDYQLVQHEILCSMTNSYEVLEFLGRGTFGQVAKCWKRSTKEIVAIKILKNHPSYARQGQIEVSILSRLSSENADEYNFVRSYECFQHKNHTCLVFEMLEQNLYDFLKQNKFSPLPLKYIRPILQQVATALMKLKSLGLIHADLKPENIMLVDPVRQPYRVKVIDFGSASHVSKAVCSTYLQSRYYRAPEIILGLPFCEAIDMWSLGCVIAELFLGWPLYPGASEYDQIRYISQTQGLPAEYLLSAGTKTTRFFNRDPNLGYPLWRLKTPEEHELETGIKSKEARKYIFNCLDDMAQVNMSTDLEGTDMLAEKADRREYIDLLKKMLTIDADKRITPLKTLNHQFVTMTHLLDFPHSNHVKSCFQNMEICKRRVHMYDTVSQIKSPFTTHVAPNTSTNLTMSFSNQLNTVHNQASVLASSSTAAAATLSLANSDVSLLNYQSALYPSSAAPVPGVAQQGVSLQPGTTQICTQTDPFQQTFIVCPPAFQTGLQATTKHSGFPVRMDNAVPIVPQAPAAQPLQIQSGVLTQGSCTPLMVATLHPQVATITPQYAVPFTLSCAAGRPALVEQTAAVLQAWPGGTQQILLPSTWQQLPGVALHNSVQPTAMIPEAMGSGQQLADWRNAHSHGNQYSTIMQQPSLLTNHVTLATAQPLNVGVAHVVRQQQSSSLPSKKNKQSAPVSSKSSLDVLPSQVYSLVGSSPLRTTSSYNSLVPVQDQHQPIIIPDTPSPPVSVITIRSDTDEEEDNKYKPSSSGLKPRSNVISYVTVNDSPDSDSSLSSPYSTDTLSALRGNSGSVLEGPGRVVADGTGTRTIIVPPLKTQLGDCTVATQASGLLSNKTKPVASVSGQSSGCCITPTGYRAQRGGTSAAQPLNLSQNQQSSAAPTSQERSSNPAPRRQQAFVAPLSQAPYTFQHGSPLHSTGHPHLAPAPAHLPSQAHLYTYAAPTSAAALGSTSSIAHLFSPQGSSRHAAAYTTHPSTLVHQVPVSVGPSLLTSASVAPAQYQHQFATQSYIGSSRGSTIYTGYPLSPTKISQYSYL

[26] = target: MYLK4 (human) (UniProt Q86YV6); assay: KINOMEscan competition binding; details: compound 10.0 µM
[27] = target: NLK (human) (UniProt Q9UBE8); assay: KINOMEscan competition binding; details: compound 10.0 µM
[28] = target: STK17A (human) (UniProt Q9UEE5); assay: KINOMEscan competition binding; details: compound 10.0 µM
[29] = target: TAOK3 (human) (UniProt Q9H2K8); assay: KINOMEscan competition binding; details: compound 10.0 µM
[30] = target: TGFBR2 (human) (UniProt P37173); assay: KINOMEscan competition binding; details: compound 10.0 µM
[31] = target: PIM2 (human) (UniProt Q9P1W9); assay: KINOMEscan competition binding; details: compound 10.0 µM
PIM2 (human), sequence (Q9P1W9 whole entry, looked up): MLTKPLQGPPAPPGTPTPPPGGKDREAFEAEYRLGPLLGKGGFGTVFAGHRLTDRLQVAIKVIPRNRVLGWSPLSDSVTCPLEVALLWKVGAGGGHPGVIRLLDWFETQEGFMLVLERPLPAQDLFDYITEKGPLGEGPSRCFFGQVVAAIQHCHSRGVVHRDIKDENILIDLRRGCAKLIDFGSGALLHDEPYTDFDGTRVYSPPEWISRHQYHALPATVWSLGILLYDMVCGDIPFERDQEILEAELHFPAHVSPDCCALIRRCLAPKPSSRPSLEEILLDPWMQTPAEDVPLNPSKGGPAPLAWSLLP

[32] = target: STK17B (human) (UniProt O94768); assay: KINOMEscan competition binding; details: compound 10.0 µM
[33] = target: PIM3 (human) (UniProt Q86V86); assay: KINOMEscan competition binding; details: compound 10.0 µM
[34] = target: PIM1 (human) (UniProt P11309); assay: SelectScreen, TR FRET
[35] = target: PIM2 (human) (UniProt Q9P1W9); assay: SelectScreen, TR FRET
[36] = target: TNK1 (human) (UniProt Q13470); assay: KINOMEscan competition binding; details: compound 10.0 µM
[37] = target: CAMK2D (human) (UniProt Q13557); assay: KINOMEscan competition binding; details: compound 10.0 µM
[38] = target: RPS6KA2 KD2 (human) (UniProt Q15349); assay: KINOMEscan competition binding; details: compound 10.0 µM
[39] = target: STK33 (human) (UniProt Q9BYT3); assay: KINOMEscan competition binding; details: compound 10.0 µM
[40] = target: DCLK1 (human) (UniProt O15075); assay: KINOMEscan competition binding; details: compound 10.0 µM
[41] = target: CSNK1G1 (human) (UniProt Q9HCP0); assay: KINOMEscan competition binding; details: compound 10.0 µM
[42] = target: RPS6KA5 KD2 (human) (UniProt O75582); assay: KINOMEscan competition binding; details: compound 10.0 µM
[43] = target: CLK1 (human) (UniProt P49759); assay: KINOMEscan competition binding; details: compound 10.0 µM
[44] = target: AAK1 (human) (UniProt Q2M2I8); assay: KINOMEscan competition binding; details: compound 10.0 µM
[45] = target: MAPK10 (human) (UniProt P53779); assay: KINOMEscan competition binding; details: compound 10.0 µM
[46] = target: MAPK8 (human) (UniProt P45983); assay: KINOMEscan competition binding; details: compound 10.0 µM
[47] = target: RPS6KA4 KD2 (human) (UniProt O75676); assay: KINOMEscan competition binding; details: compound 10.0 µM
[48] = target: PAK2 (human) (UniProt Q13177); assay: KINOMEscan competition binding; details: compound 10.0 µM
[49] = target: CAMKK2 (human) (UniProt Q96RR4); assay: KINOMEscan competition binding; details: compound 10.0 µM
[50] = system: EIF2AK4 KD2 (human), Q9P2K8 [S808G]; assay: KINOMEscan competition binding; details: compound 10.0 µM
[51] = target: DYRK1B (human) (UniProt Q9Y463); assay: KINOMEscan competition binding; details: compound 10.0 µM
[52] = target: CLK2 (human) (UniProt P49760); assay: KINOMEscan competition binding; details: compound 10.0 µM
[53] = target: BMPR1B (human) (UniProt O00238); assay: KINOMEscan competition binding; details: compound 10.0 µM
[54] = target: CLK4 (human) (UniProt Q9HAZ1); assay: KINOMEscan competition binding; details: compound 10.0 µM
[55] = target: MAP4K2 (human) (UniProt Q12851); assay: KINOMEscan competition binding; details: compound 10.0 µM
[56] = target: HIPK1 (human) (UniProt Q86Z02); assay: SelectScreen, TR FRET
[57] = target: DYRK1B (human) (UniProt Q9Y463); assay: SelectScreen, TR FRET
[58] = target: DYRK1A (human) (UniProt Q13627); assay: SelectScreen, TR FRET
[59] = target: HIPK2 (human) (UniProt Q9H2X6); assay: SelectScreen, TR FRET

- kinase still bound, per cent of control [1]: 23%
- kinase still bound, per cent of control [2]: 24%
- kinase still bound, per cent of control [3]: 16%
- Kd [4]: 130 nM
- kinase still bound, per cent of control [4]: 2.2%
- kinase still bound, per cent of control [5]: 6.4%
- IC50 [6]: 428 nM
- IC50 [7]: 891 nM
- IC50 [8]: 264 nM
- IC50 [9]: 47 nM
- IC50 [10]: 3200 nM
SMILES: CN1C(=O)CCN(C2CCCC2)c2nc(Nc3ccc(N4CCC(O)CC4)cn3)ncc21

- kinase still bound, per cent of control [12]: 3%
- kinase still bound, per cent of control [13]: 23%
- kinase still bound, per cent of control [14]: 30%
- kinase still bound, per cent of control [15]: 1.2%
- kinase still bound, per cent of control [16]: 24%
- kinase still bound, per cent of control [17]: 17%
- kinase still bound, per cent of control [18]: 9.6%
- kinase still bound, per cent of control [19]: 9.9%
- kinase still bound, per cent of control [20]: 24%
- kinase still bound, per cent of control [21]: 16%
- kinase still bound, per cent of control [22]: 2.4%
- kinase still bound, per cent of control [23]: 3.5%
- kinase still bound, per cent of control [24]: 12%
- kinase still bound, per cent of control [25]: 0.65%
- kinase still bound, per cent of control [26]: 6.7%
- kinase still bound, per cent of control [3]: 15%
- kinase still bound, per cent of control [27]: 18%
- kinase still bound, per cent of control [28]: 1.1%
- kinase still bound, per cent of control [4]: 24%
- kinase still bound, per cent of control [29]: 29%
- kinase still bound, per cent of control [30]: 22%
- kinase still bound, per cent of control [31]: 1.8%
- kinase still bound, per cent of control [32]: 6%
- kinase still bound, per cent of control [33]: 4.8%
- IC50 [34]: 573 nM
- IC50 [35]: 501 nM
SMILES: N=C1NC(=O)/C(=C/c2ccc(-c3ccc(S(N)(=O)=O)cc3)o2)S1
- kinase still bound, per cent of control [11]: 5.4%

- kinase still bound, per cent of control [1]: 8.2%
- kinase still bound, per cent of control [2]: 1.2%
- kinase still bound, per cent of control [36]: 33%
- kinase still bound, per cent of control [37]: 27%
- Kd [4]: 106 nM
- kinase still bound, per cent of control [4]: 3.9%
- kinase still bound, per cent of control [38]: 13%
- kinase still bound, per cent of control [39]: 22%
- kinase still bound, per cent of control [40]: 27%
- IC50 [7]: 1010 nM
- IC50 [10]: 556 nM
SMILES: CCOc1cc(N2CCC(O)CC2)ccc1Nc1ncc2c(n1)N(C1CCCC1)CCC(=O)N2CC

- kinase still bound, per cent of control [12]: 16%
- kinase still bound, per cent of control [41]: 24%
- kinase still bound, per cent of control [16]: 8.6%
- kinase still bound, per cent of control [42]: 23%
- kinase still bound, per cent of control [21]: 4%
- kinase still bound, per cent of control [43]: 24%
- kinase still bound, per cent of control [44]: 20%
- kinase still bound, per cent of control [45]: 29%
- kinase still bound, per cent of control [23]: 9.7%
- kinase still bound, per cent of control [46]: 28%
- kinase still bound, per cent of control [47]: 8.8%
- kinase still bound, per cent of control [48]: 34%
- kinase still bound, per cent of control [25]: 4.2%
- kinase still bound, per cent of control [49]: 29%
- kinase still bound, per cent of control [50]: 21%
- kinase still bound, per cent of control [28]: 5%
- kinase still bound, per cent of control [51]: 8.6%
- kinase still bound, per cent of control [52]: 4.8%
- kinase still bound, per cent of control [53]: 6.2%
- kinase still bound, per cent of control [54]: 30%
- kinase still bound, per cent of control [31]: 15%
- kinase still bound, per cent of control [32]: 13%
- kinase still bound, per cent of control [33]: 12%
- kinase still bound, per cent of control [55]: 15%
- IC50 [56]: 3810 nM
- IC50 [57]: 62 nM
- IC50 [58]: 19 nM
- IC50 [59]: 3890 nM
SMILES: N=C1NC(=O)/C(=C/c2c[nH]c(=O)c(-c3ccc4cc[nH]c4c3)c2)S1
